The values below come from PMC11676667, “Pharmacokinetics of Oral Cannabinoid Δ8-Tetrahydrocannabivarin and Its Main Metabolites in Healthy Participants” (Pharmaceuticals, 2024).

A short description of this data set: Plasma pharmacokinetics after single oral dose of Δ8-THCV in MCT oil (LC-MS/MS, non-compartmental analysis). Particulars: of 504 plasma samples from 15 participants after oral Δ8-THCV. It is filed as in vivo, human. The protocol:
The study was a two-phase, dose-ranging, placebo-controlled trial in 21 healthy participants to assess the safety, tolerability, PK, and PD of an oral formulation of Δ8-THCV. A detailed description of the study was published elsewhere. The study product was a medium-chain triglyceride (MCT) oil oral formulation of Δ8-THCV at a concentration of 50 mg/mL. […] MCT oil was used as placebo.
Twenty-one participants were enrolled in the clinical study and plasma samples from 15 participants were sent to our laboratory for pharmacokinetic evaluation. Of these, 3 participants were enrolled in Phase 1, an unblinded, placebo-controlled, single ascending dose design and 12 were enrolled in Phase 2, a double-blind, randomized, placebo-controlled, within-participant crossover design. At each study session, participants received one of the following oral doses: placebo, 12.5 mg, 25 mg, 50 mg, 100 mg, and 200 mg of the aforementioned Δ8-THCV formulation in MCT. Study visits were separated by a washout period of a minimum of one week and maximum of 28 days. Participants entered the research facility the night before the session and received the study product in the morning after a standardized high-fat, high-calorie breakfast. PK blood samples included in this analysis were collected prior to dosing and 0.5, 1, 2, 4, 6, and 8 h after dose. Immediately following collection into K2EDTA tubes, blood samples were placed on wet ice, centrifuged, and plasma was immediately frozen at −80 °C until shipment to the bioanalytical laboratory (iC42 Clinical Research and Development, University of Colorado, Aurora, CO, USA) on dry ice.
Plasma samples were analyzed using a validated high-performance liquid chromatography–tandem mass spectrometry (LC-MS/MS) assay. The assay included Δ8-THCV and its main metabolites 11-OH-Δ8-THCV and Δ8-THCV-COOH, Δ9-THCV and its main metabolite Δ9-THCV-COOH, and Δ9-THC and Δ8-THC as well as their main metabolites (Figure 3). The complete list of analyzed compounds and a summary of the key performance parameters of the assay are presented in Appendix A and Table A1 and Table A2. […] For the PK analysis, concentrations below the lower limit of quantification were set to 0 ng/mL. PK parameters were calculated using non-compartmental analysis (Phoenix WinNonlin version 8.4., Certara, Princeton, NJ, USA). Statistical analysis was carried out using GraphPad Prism (version 10, Boston, MA, USA).

`CCCCCc1cc(O)c2c(c1)OC(C)(C)[C@@H]1CCC(C)=CC21` (some centres unmarked) [Δ9-THC, Δ9-tetrahydrocannabinol, reference compound]: the “number of positive plasma samples” value is “No positive samples”. Under `CCCCCc1cc(O)c2c(c1)OC(C)(C)[C@@H]1CC=C(C)CC21` (some centres unmarked) [Δ8-THC, Δ8-tetrahydrocannabinol, reference compound] stands “No positive samples”.
